Structures can show the parent of a compound that is named as a salt. The source made the active and inactive calls. The rule behind the calls is not given here. Where a SMILES comes first, the peptide text is derived from it.
What was measured:
[1] = Oral bioavailability in rat; assay type: ADME, organism-based; conditions: in vivo
Urotensin-2 receptor [2] = molecular target: T1, Urotensin-2 receptor (Rattus norvegicus, UniProt P49684); test: Binding affinity to rat urotensin 2 receptor
T1 sequence (P49684 whole entry): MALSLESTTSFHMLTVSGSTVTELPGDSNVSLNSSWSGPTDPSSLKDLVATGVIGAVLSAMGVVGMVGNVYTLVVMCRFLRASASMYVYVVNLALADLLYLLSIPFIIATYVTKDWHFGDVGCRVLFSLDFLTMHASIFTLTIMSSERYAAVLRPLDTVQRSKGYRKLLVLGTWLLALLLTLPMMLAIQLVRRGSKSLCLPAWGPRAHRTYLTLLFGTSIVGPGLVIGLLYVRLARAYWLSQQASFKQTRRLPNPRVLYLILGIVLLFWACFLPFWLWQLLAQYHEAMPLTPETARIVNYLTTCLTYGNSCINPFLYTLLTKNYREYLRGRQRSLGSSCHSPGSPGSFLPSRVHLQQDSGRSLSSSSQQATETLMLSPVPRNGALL

Mus musculus = test: Reduction in atherosclerotic lesion size in Apo-E knockout mouse at 30 mg/kg, po qd for 10 weeks; assay type: functional; parameters: scale not given: the % may be the effect or the level left
Urotensin-2 receptor [3] = molecular target: T1, Urotensin-2 receptor; test: Antagonist activity at rat urotensin 2 receptor expressed in CHO cells assessed as calcium mobilization by FLIPR; assay type: functional, cell-based
Urotensin-2 receptor [4] = molecular target: T2, Urotensin-2 receptor (Homo sapiens, UniProt Q9UKP6); test: Binding affinity to human urotensin 2 receptor
T2 sequence (Q9UKP6 whole entry): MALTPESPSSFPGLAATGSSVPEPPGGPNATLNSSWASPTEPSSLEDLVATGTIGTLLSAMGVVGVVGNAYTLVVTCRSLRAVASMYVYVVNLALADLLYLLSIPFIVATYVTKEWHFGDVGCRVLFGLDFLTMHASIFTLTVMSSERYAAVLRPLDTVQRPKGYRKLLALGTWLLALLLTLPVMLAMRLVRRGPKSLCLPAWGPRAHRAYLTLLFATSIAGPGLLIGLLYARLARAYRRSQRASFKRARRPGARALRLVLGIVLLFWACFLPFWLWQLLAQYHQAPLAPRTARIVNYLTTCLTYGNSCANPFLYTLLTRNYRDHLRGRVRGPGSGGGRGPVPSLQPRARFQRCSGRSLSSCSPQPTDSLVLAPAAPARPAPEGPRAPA

Aorta = test: Vasorelaxation activity against urotensin-2-induced contraction in isolated rat aorta assessed as restoration of renal blood flow at 10 mg/kg/hr, iv; assay type: functional, organism-based
Urotensin-2 receptor [5] = molecular target: T3, Urotensin-2 receptor (Macaca mulatta, UniProt Q8HYC3); test: Binding affinity to monkey urotensin 2 receptor
T3 sequence (Q8HYC3 whole entry): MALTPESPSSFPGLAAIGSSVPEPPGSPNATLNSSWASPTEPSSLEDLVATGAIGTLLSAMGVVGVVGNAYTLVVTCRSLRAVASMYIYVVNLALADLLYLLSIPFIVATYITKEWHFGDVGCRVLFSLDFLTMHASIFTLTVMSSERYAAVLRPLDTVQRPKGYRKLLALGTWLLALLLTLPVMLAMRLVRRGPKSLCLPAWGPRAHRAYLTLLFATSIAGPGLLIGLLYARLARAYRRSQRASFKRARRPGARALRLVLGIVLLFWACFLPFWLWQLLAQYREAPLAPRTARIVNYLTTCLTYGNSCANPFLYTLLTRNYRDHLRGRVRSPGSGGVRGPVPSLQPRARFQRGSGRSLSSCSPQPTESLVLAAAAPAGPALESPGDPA

Urotensin-2 receptor [6] = molecular target: T4, Urotensin-2 receptor (Mus musculus, UniProt Q8VIH9); test: Binding affinity to mouse urotensin 2 receptor
T4 sequence (Q8VIH9 whole entry): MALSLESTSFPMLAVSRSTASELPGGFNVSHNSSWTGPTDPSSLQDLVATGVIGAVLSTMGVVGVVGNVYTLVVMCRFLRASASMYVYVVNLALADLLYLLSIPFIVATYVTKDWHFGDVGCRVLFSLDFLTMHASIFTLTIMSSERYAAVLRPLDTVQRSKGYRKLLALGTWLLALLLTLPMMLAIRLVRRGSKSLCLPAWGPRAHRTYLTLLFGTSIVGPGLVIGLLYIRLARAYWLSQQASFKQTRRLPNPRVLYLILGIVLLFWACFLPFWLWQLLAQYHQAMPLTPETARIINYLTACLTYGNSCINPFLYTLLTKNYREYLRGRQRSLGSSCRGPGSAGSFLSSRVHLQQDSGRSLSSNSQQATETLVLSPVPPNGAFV

Urotensin II receptor = molecular target: T5, Urotensin II receptor (Felis catus, UniProt Q533H1); test: Binding affinity to cat urotensin 2 receptor
T5 sequence (Q533H1 whole entry): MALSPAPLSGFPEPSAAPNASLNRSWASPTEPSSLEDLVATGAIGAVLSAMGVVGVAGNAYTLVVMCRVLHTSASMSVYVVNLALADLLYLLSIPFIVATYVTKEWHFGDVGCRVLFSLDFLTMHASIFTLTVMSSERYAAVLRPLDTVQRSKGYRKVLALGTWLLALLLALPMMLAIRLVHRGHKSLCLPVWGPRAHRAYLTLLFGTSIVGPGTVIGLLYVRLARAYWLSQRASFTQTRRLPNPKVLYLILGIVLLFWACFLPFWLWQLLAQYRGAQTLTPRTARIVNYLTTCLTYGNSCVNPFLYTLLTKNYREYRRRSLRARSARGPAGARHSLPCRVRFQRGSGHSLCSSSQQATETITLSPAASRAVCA

Rattus norvegicus [7] = test: Plasma concentration in rat at 10 mg/kg, iv; assay type: ADME, organism-based; parameters: dose 10 mg/kg, route intravenous; conditions: in vivo
Urotensin-2 receptor [8] = molecular target: T1, Urotensin-2 receptor; test: Displacement of [125I]U2 from rat urotensin 2 receptor expressed in CHO cells; assay type: cell-based
Urotensin-2 receptor [9] = molecular target: T2, Urotensin-2 receptor; test: Agonist activity at human urotensin 2 expressed in CHO cells by FLIPR; assay type: functional, cell-based
Urotensin-2 receptor [10] = molecular target: T1, Urotensin-2 receptor; test: Agonist activity at rat urotensin 2 receptor expressed in CHO cells assessed as calcium mobilization by FLIPR; assay type: functional, cell-based
Urotensin-2 receptor [11] = molecular target: T1, Urotensin-2 receptor; test: Agonist activity at rat urotensin 2 receptor expressed in CHO cells assessed as calcium mobilization at 1000 nM by FLIPR; assay type: functional, cell-based
Rattus norvegicus [12] = test: Decrease in urotensin-2-induced temperature of ear pinna in rat ear-flush model at 10 ug/ml, iv for 15 mins; assay type: functional, organism-based
[13] = molecular target: T6, Urotensin-2 receptor (Rattus norvegicus) (UniProt P49684); test: Antagonist activity at rat urotensin 2 receptor expressed in CHO cells assessed as calcium mobilization at 100 nM by FLIPR; assay type: functional, cell-based
T6 sequence (whole entry): T1 sequence (P49684 whole entry)

[14] = molecular target: T6, Urotensin-2 receptor (Rattus norvegicus); test: Antagonist activity at rat urotensin 2 receptor expressed in CHO cells assessed as calcium mobilization at 300 nM by FLIPR; assay type: functional, cell-based
[15] = molecular target: T6, Urotensin-2 receptor (Rattus norvegicus); test: Agonist activity at rat urotensin 2 receptor expressed in CHO cells assessed as calcium mobilization at 500 nM by FLIPR; assay type: functional, cell-based

Q: Which bioavailability [1] does the source give for `CN(C)CCOc1cc(NS(=O)(=O)c2c(Cl)cc(C(F)(F)F)cc2Cl)ccc1Cl` [SB611812] here?
A: Its bioavailability is 100%.

Q: What about the Ki (Urotensin-2 receptor [2]) of the same compound?
A: The Ki was 121 nM.

Q: And the Activity (Mus musculus)?
A: Its Activity is 64%.

Q: With `Cc1cc(NC(=O)NCCN2CCC(O)(Cc3ccccc3)CC2)c2ccccc2n1` [PALOSURAN SULFATE] as the compound, how does the Ki (Urotensin-2 receptor [3]) read?
A: The Ki was greater than 1000 nM.

Q: And the IC50 (Urotensin-2 receptor [4])?
A: Its IC50 is 3.6 nM.

Q: And the Ki (Urotensin-2 receptor [4])?
A: The Ki was 5 nM.

Q: And the Activity (Aorta)?
A: Its Activity is “Active”.

Q: What about the Ki (Urotensin-2 receptor [5]) of the same compound?
A: Its Ki is 4 nM.

Q: And the Ki (Urotensin-2 receptor [6])?
A: The Ki was greater than 1000 nM.

Q: And the Ki (Urotensin II receptor)?
A: Its Ki is greater than 1000 nM.

Q: And the concentration (Rattus norvegicus [7])?
A: The concentration was 5 µM.

Q: Which results are given for `CN(C)CCCOc1ccc(CN2CC[C@H](NC(=O)c3ccc(Cl)c(Cl)c3)C2)cc1`?
A: Ki (Urotensin-2 receptor [8]): 3.2 nM; Ki (Urotensin-2 receptor [9]): 250 nM

Q: What does the source list for `CCN1CCN(c2cccc3c2[C@H]2CCC[C@H](c4ccc(OC)c(OC)c4)N2C3=O)CC1`?
A: bioavailability [1]: 35%; Ki (Urotensin-2 receptor [10]): 6.3 nM; Ki (Urotensin-2 receptor [9]): 390 nM

Q: What does the source list for `CC(C)[C@H](NC(=O)c1cc2ccccc2s1)C(=O)N[C@H]1CCN(Cc2ccc(OCCCN(C)C)cc2)C1`?
A: Ki (Urotensin-2 receptor [11]): 600 nM; Ki (Urotensin-2 receptor [4]): 12 nM

Q: With `CCN1CCN(c2cccc3c2CN([C@@H](CCCNS(=O)(=O)c2cccs2)c2ccc(OC)c(OC)c2)C3=O)CC1` as the compound, how does the bioavailability [1] read?
A: Its bioavailability is 10%.

Q: And the Activity (Rattus norvegicus [12])?
A: The Activity was “Active”.

Q: What about the inhibition [13] of the same compound?
A: Its inhibition is 74%.

Q: What does the source list for `CC(=O)N[C@@H](Cc1ccccc1)C(=O)N[C@@H](Cc1c[nH]c2ccccc12)C(=O)N[C@@H](CCCCN)C(=O)N[C@@H](Cc1ccc(O)cc1)C(N)=O` (Ac-FWKY-NH2)?
A: Activity [14]: inactive; Activity [15]: 57%; Ki (Urotensin-2 receptor [8]; cho): < 10000 nM

Reference: ChEMBL document CHEMBL1165847, “Urotensin-II receptor modulators as potential drugs” (J Med Chem, 2010)
